Measurements as given in PubChem BioAssay AID747 (Structural Genomics Consortium, 2007).

Target: Sulfotransferase 1E1 (Homo sapiens) (UniProt P49888)
Experiment: ligand binding to SULT1E1 via aggregation temperature – biophysical, StarGazer light scattering, human (AID 747)
Conditions: purified SULT1E1, StarGazer light scattering thermal shift; at 1 mM; stronger effect = higher value

Chain of Sulfotransferase 1E1 (Homo sapiens) (P49888 whole entry, looked up): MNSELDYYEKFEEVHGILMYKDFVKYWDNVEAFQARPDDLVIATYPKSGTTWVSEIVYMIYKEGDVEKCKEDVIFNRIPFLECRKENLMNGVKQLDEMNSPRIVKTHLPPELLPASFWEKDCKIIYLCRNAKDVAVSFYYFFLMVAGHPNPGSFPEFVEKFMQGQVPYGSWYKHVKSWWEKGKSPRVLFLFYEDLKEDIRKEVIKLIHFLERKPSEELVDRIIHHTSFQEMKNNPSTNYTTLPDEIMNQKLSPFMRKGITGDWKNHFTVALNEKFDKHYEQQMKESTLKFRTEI

Row | SMILES | Tagg shift
1 | Cc1ncc(COP(=O)(O)O)c(C=O)c1O | 3.95 °C
2 | CCCc1ccccc1O | 0 °C
3 | CNCC(O)c1ccc(O)c(O)c1 (stereo unspecified) | 0 °C
4 | COc1cc(C=O)ccc1O | 0 °C
5 | O=C(O)c1ccccc1O | 0 °C
6 | Oc1cccc2ccccc12 | 0 °C
7 | Cc1cccc(Nc2ccccc2C(=O)O)c1C | 2.35 °C
8 | COC(=O)CCC(C)C1CCC2C3CCC4CC(O)CCC4(C)C3CCC12C (stereo unspecified) | 1.2 °C
9 | Oc1ccc2ccccc2c1 | 0 °C
10 | CCC(C)c1ccccc1O (stereo unspecified) | 0 °C
11 | C[C@]12CC[C@H](OS(=O)(=O)O)CC1=CC[C@@H]1[C@@H]2CC[C@]2(C)C(=O)CC[C@@H]12 | 1.1 °C
12 | C[C@H]1CCC[C@H](O)CCC/C=C/c2cc(O)cc(O)c2C(=O)O1 | 1.3 °C
13 | NC(Cc1cc(I)c(Oc2ccc(O)c(I)c2)c(I)c1)C(=O)O (stereo unspecified) | 2.6 °C
14 | O=[N+]([O-])c1cc(Cl)c(O)c(Cl)c1 | 1.4 °C
15 | C[C@]12CC[C@@H]3c4ccc(O)cc4CC[C@H]3[C@@H]1CCC2=O | 1.1 °C
16 | Cc1ccc(O)cc1 | 0 °C
17 | Nc1ccc(O)cc1 | 0 °C
18 | O=c1c(O)c(-c2ccc(O)c(O)c2)oc2cc(O)cc(O)c12 | 1.95 °C
19 | NCCc1ccc(O)c(O)c1 | 0 °C
20 | Oc1ccc(/C=C/c2cc(O)cc(O)c2)cc1 | 2.25 °C
21 | NC[C@H](O)c1ccc(O)c(O)c1 | 0 °C
22 | CCc1ccccc1O | 0 °C
23 | CC(C)NCC(O)c1ccc(O)c(O)c1 (stereo unspecified) | 0 °C
24 | Oc1c(Cl)c(Cl)c(Cl)c(Cl)c1Cl | 0 °C
25 | CN1CCc2cccc3c2C1Cc1ccc(O)c(O)c1-3 (stereo unspecified) | 0 °C
26 | C[C@]12CC[C@@H]3c4cc(O)c(O)cc4CC[C@H]3[C@@H]1CC[C@@H]2O | 1.55 °C
